Laboratory results reported in PubChem BioAssay AID2060483 (Molecular Pharmacology Branch, DTP, NCI, 2025).

System: K24384-001-R-PDC complex spheroids, viability
Assay: Anticancer human tumor K24384-001-R-PDC patient-derived pancreatic adenocarcinoma cell line growth inhibition [GQUAD]
Settings: for IC50: curve of first compound; for viability, T/C: stronger effect = lower value
Excerpt: DNA G-quadruplex Stabilizer Agents in Combinations in Complex Spheroids
A high-throughput screen of multi-cell type tumor spheroids was designed to identify active combinations of DNA G-quadruplex stabilizer agents and targeted small molecules. Complex spheroids include a stromal component modeled by human endothelial cells (HUVEC) and fibroblasts modeled by human mesenchymal stem cells (MSCs). The concentration ranges selected for each drug and investigational agent were based upon clinically achievable concentrations if the clinical Cmax of the agent was known.
Compounds. The drugs and investigational agents: pidnarulex (CX-5461; NSC782164), APTO-253 (NSC789042), BRACO-19 (NSC847499), peposertib (NSC802822), ceralasertib (NSC780249), elimusertib (NSC800525), camonsertib (NSC841442), AZD-1390 (NSC803789), olaparib (NSC753686), talazoparib (NSC767125), ART-558 (NSC835418), sotorasib (NSC818433), MRTX-1133 (NSC836407), SN-38 (NSC673596), topotecan (NSC609699), etoposide (NSC141540), doxorubicin (NSC123127), gemcitabine (NSC613327), 5-fluorouracil (NSC19893), paclitaxel (NSC125973), vemurafenib (NSC761431), panobinostat (NSC761190), R-306465 (JNJ-16241199; NSC773264), adavosertib (NSC754352), TP-3654 (NSC805149), carboplatin (NSC241240), KSQ-4279 (NSC840948), and staurosporine (NSC755774) were obtained from the National Cancer Institute (NCI) Developmental Therapeutics Program Chemical Repository (34). The FDA-approved anticancer drug set is available from the NCI Developmental Therapeutics Program. […] The stock solutions were prepared in dimethyl sulfoxide (DMSO, Sigma-Aldrich, St. Louis, MO, cat. D2650) at 800-fold the tested concentration and stored at -70 degrees C prior to their use. All drugs and investigational agents were tested over a range starting from a high concentration at or near the clinical Cmax and decreasing in half-log increments. If the clinical Cmax for an agent had not been determined, the highest concentration tested was 10 microM.
2.3 Cell Culture. All cells were maintained in an incubator at 37 degrees C and 5% CO2 with 95% humidity. The PDC lines were cultured according to standard operating procedures established by the NCI PDMR. All PDCs were thawed and cultured in Matrigel-coated flasks prepared with a working solution of 1X Ham's F-12 nutrient mix, without supplementation (Invitrogen, cat. 11765054), 100 U/mL penicillin-streptomycin (Invitrogen, cat. 15140122), and 2.5% Matrigel (Corning Inc., cat. 354248) for the first three passages. The 857933-349-R-J2-PDC line was cultured in 6C/Colon 1B media, which includes advanced DMEM/F-12 (Thermo Fisher Scientific, cat. 12634028), 10 mM HEPES (Thermo Fisher Scientific, cat. 15630080), 1X GlutaMAX supplement (Thermo Fisher Scientific, cat. 35050061), 0.1 mg/mL primocin (InvivoGen, cat. ant-pm-2), 10% defined fetal bovine serum, heat inactivated (HyClone Laboratories Inc., cat. SH30070.03HI), 50% L-WRN conditioned media (ATCC, cat. CRL-3276), 1.25 mM N-Acetyl-L-cysteine (Sigma-Aldrich, cat. A9165), 10 mM nicotinamide (Sigma-Aldrich, cat. N0636), 1X B-27 supplement (Thermo Fisher Scientific, cat. 17504044), 1X N-2 supplement (Thermo Fisher Scientific, cat. 17502048), 10 microM Y-27632 dihydrochloride (Tocris Bioscience, cat. 1254), and 50 ng/mL human EGF recombinant protein (Thermo Fisher Scientific, cat. PHG0311). The 485176-168-R4-J1-PDC line was cultured in Panc media, which includes all 6C/Colon 1B media components plus 100 ng/mL human FGF-10 (Thermo Fisher Scientific, cat. 100-26), 500 nM SB-431542 (Selleckchem, cat. S1067), and gastrin (Tocris, cat. 3006).
[…]
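Also: spheroids exposed to compounds for seven days.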

In the case of `CC[C@@]1(O)C(=O)OCc2c1cc1n(c2=O)Cc2cc3c(CN(C)C)c(O)ccc3nc2-1` + CN(C)c1ccc(Nc2c3ccc(NC(=O)CCN4CCCC4)cc3nc3cc(NC(=O)CCN4CCCC4)ccc23)cc1, the IC50 (second compound 0.0316 µM) is reported as 0.0897 µM, the IC50 (second compound 0.1 µM) is reported as 0.0955 µM and the IC50 (second compound 0.316 µM) is reported as 0.269 µM. For the same compound, the IC50 (second compound 1 µM) was 0.125 µM, the IC50 (second compound 3.16 µM) was 0.153 µM and the IC50 (second compound 10 µM) was 0.155 µM. It also gave a viability, T/C (second compound 0.0316 µM, first compound 0.000999 µM) of 102%, a viability, T/C (second compound 0.0316 µM, first compound 0.00316 µM) of 101% and a viability, T/C (second compound 0.0316 µM, first compound 0.00999 µM) of 101%. The viability, T/C (second compound 0.0316 µM, first compound 0.0316 µM) was 77.5%, the viability, T/C (second compound 0.0316 µM, first compound 0.0999 µM) was 47.8% and the viability, T/C (second compound 0.0316 µM, first compound 0.316 µM) was 42.5%. It also gave a viability, T/C (second compound 0.1 µM, first compound 0.000999 µM) of 99.8%, a viability, T/C (second compound 0.1 µM, first compound 0.00316 µM) of 96.7% and a viability, T/C (second compound 0.1 µM, first compound 0.00999 µM) of 103%. The viability, T/C (second compound 0.1 µM, first compound 0.0316 µM) was 74.4%, the viability, T/C (second compound 0.1 µM, first compound 0.0999 µM) was 51.8% and the viability, T/C (second compound 0.1 µM, first compound 0.316 µM) was 38.8%. The viability, T/C (second compound 0.316 µM, first compound 0.000999 µM) was 96.9%, the viability, T/C (second compound 0.316 µM, first compound 0.00316 µM) was 99.6% and the viability, T/C (second compound 0.316 µM, first compound 0.00999 µM) was 89.1%. The viability, T/C (second compound 0.316 µM, first compound 0.0316 µM) was 89.9%, the viability, T/C (second compound 0.316 µM, first compound 0.0999 µM) was 55.5% and the viability, T/C (second compound 0.316 µM, first compound 0.316 µM) was 49.2%. The viability, T/C (second compound 1 µM, first compound 0.000999 µM) was 99.8%, the viability, T/C (second compound 1 µM, first compound 0.00316 µM) was 103% and the viability, T/C (second compound 1 µM, first compound 0.00999 µM) was 96%. For the same compound, the viability, T/C (second compound 1 µM, first compound 0.0316 µM) was 82.4%, the viability, T/C (second compound 1 µM, first compound 0.0999 µM) was 52.4% and the viability, T/C (second compound 1 µM, first compound 0.316 µM) was 39.3%. It also gave a viability, T/C (second compound 3.16 µM, first compound 0.000999 µM) of 102%, a viability, T/C (second compound 3.16 µM, first compound 0.00316 µM) of 90.7% and a viability, T/C (second compound 3.16 µM, first compound 0.00999 µM) of 88.5%. It also gave a viability, T/C (second compound 3.16 µM, first compound 0.0316 µM) of 93.1%, a viability, T/C (second compound 3.16 µM, first compound 0.0999 µM) of 50.8% and a viability, T/C (second compound 3.16 µM, first compound 0.316 µM) of 48.6%. For the same compound, the viability, T/C (second compound 10 µM, first compound 0.000999 µM) was 103%, the viability, T/C (second compound 10 µM, first compound 0.00316 µM) was 103% and the viability, T/C (second compound 10 µM, first compound 0.00999 µM) was 105%. The viability, T/C (second compound 10 µM, first compound 0.0316 µM) was 109%, the viability, T/C (second compound 10 µM, first compound 0.0999 µM) was 57.4% and the viability, T/C (second compound 10 µM, first compound 0.316 µM) was 38%.
